Experimental data reported in ChEMBL document CHEMBL2331129, “Development and characterization of monomeric N-end rule inhibitors through in vitro model substrates” (J Med Chem, 2013).
pIC50: −log10 of the molar value. Calls of active or inactive are those of the source. No cut-off for these calls is given here.

Columns and labels:
Oryctolagus cuniculus [1] = species on record: Oryctolagus cuniculus; test: Inhibition of UBR protein in rabbit reticulocyte lysates assessed as inhibition of RGS4 substrate degradation at 2 mM after 30 to 60 mins in presence of bestatin
Oryctolagus cuniculus [2] = species on record: Oryctolagus cuniculus; test: Inhibition of UBR protein in rabbit reticulocyte lysates assessed as inhibition of Arg-nsP4 substrate degradation at 6 mM by SDS-PAGE in presence of bestatin
Oryctolagus cuniculus [3] = species on record: Oryctolagus cuniculus; conditions: at 2 mM
Description: Inhibition of UBR protein in rabbit reticulocyte lysates assessed as inhibition of Tyr-nsP4 substrate degradation at 2 mM

Oryctolagus cuniculus [4] = species on record: Oryctolagus cuniculus; conditions: at 2 mM; remark: listed apart in the source
Description: Inhibition of UBR protein in rabbit reticulocyte lysates assessed as inhibition of Tyr-nsP4 substrate degradation at 2 mM by immunoblotting analysis in presence of bestatin

[5] = Inhibition of UBR protein in rabbit reticulocyte lysates assessed as inhibition of Tyr-nsP4 substrate degradation by in vitro synthesis/degradation assay; design: species or system Oryctolagus cuniculus
[6] = Inhibition of UBR protein in rabbit reticulocyte lysates assessed as inhibition of Arg-nsP4 substrate degradation by in vitro synthesis/degradation assay; design: species or system Oryctolagus cuniculus
Oryctolagus cuniculus [7] = species on record: Oryctolagus cuniculus; test: Inhibition of UBR protein in rabbit reticulocyte lysates assessed as inhibition of Arg-nsP4 substrate degradation at 1 mM after 30 mins by Western blot analysis
Oryctolagus cuniculus [8] = species on record: Oryctolagus cuniculus
Description: Inhibition of UBR protein in rabbit reticulocyte lysates assessed as inhibition of Tyr-nsP4 substrate degradation measuring substrate half life at 2 mM

Oryctolagus cuniculus [9] = species on record: Oryctolagus cuniculus; test: Inhibition of UBR protein in rabbit reticulocyte lysates assessed as inhibition of Arg-nsP4 substrate degradation at 2 mM after 30 mins by Western blot analysis
Oryctolagus cuniculus [10] = species on record: Oryctolagus cuniculus; test: Inhibition of UBR protein in rabbit reticulocyte lysates assessed as inhibition of Arg-nsP4 substrate degradation at 2 mM by SDS-PAGE in presence of bestatin

| SMILES | inhibition (Oryctolagus cuniculus [3]) | inhibition (Oryctolagus cuniculus [4]) | other results |
| --- | --- | --- | --- |
| NC(N)=NCCC[C@H](N)C(=O)N[C@@H](Cc1ccccc1)C(=O)O |  |  | inhibition (Oryctolagus cuniculus [1]): Active |
| C[C@H](NC(=O)[C@H](N)CCCNC(=N)N)C(=O)O |  |  | inhibition (Oryctolagus cuniculus [2]): inactive; inhibition (Oryctolagus cuniculus [1]): inactive |
| N[C@@H](Cc1ccccc1)C(=O)NCCCCC(=O)O | Active | Active |  |
| N[C@@H](Cc1ccccc1)C(=O)NCCC(=O)O | Active | Active |  |
| N[C@@H](Cc1ccccc1)C(=O)NCCCP(=O)(O)O | Active | Active |  |
| CC(=O)N[C@@H](Cc1ccccc1)C(=O)N[C@@H](C)C(=O)O |  | inactive |  |
| CC(N)Cc1ccc(Cl)cc1 (configuration not stated) |  | Active | pIC50 [5]: 2.93; pIC50 [6]: 3.03; inhibition (Oryctolagus cuniculus [7]): Active; T1/2 (Oryctolagus cuniculus [8]): 1.05 h |
| COC(=O)CCCCNC(=O)[C@@H](N)Cc1ccccc1 | Active | Active |  |
| C[C@H](NC[C@@H](N)Cc1ccccc1)C(=O)O |  | inactive |  |
| CC(N)Cc1ccccc1 (configuration not stated) |  | Active |  |
| N=C(N)NCCC[C@@H](N)C(=O)N[C@@H](Cc1ccccc1)C(=O)O |  |  | inhibition (Oryctolagus cuniculus [1]): inactive |
| CC(=O)N[C@@H](Cc1ccccc1)C(N)=O | inactive | inactive |  |
| C[C@H](NC(=O)[C@@H](N)CCCN=C(N)N)C(=O)O |  |  | pIC50 [6]: 2.92; inhibition (Oryctolagus cuniculus [9]): Active; inhibition (Oryctolagus cuniculus [1]): Active; inhibition (Oryctolagus cuniculus [10]): Active |
| CCCCCNC(=O)[C@@H](N)Cc1ccccc1 | Active | Active |  |
| CC(=O)N[C@@H](Cc1ccccc1)C(=O)O | inactive | inactive |  |
| NC(=O)[C@@H](N)Cc1ccccc1 | Active | inactive |  |
